What all share (assay): in vitro antibacterial activity, microtitration dilution method
Holding throughout (assay type): cell-based

In assay [1] the test system is Enterobacter cloacae MA 2646. The following applies: MA2646, read-out: Minimal Inhibitory Concentration MIC.
The subject of assay [2] is Escherichia coli Vogel. Particulars: read-out: Minimal Inhibitory Concentration MIC. An excerpt: (§1) The compounds of the invention display antibacterial activity as shown in the following table when tested by the microtitration dilution method as described in Heifetz, et al, Antimicr. Agents & Chemoth., 6, 124 (1974), which is incorporated herein by reference. […]
Assay [3] deals with Klebsiella pneumoniae MGH-2.
Excerpt: as §1

Assay [4] relates to Proteus rettgeri M 1771. The following applies: Providencia rettgeri.
Excerpt: as §1

The subject of assay [5] is Pseudomonas aeruginosa UI-18.
Excerpt: as §1

Assay [6] has as its system Staphylococcus aureus H 228.
Excerpt: as §1

For assay [7], the system named is Staphylococcus aureus UC-76.
Excerpt: as §1

The test system of assay [8] is Streptococcus faecalis MGH-2. The following applies: Enterococcus faecalis.
Excerpt: as §1

For assay [9], the system named is Streptococcus pneumonia SV-1. The following applies: Streptococcus pneumoniae.
Excerpt: as §1

The test system of assay [10] is Streptococcus pyogenes C-203.
Excerpt: as §1

Where [11] appears, read: MGH2, Klebsiella pneumoniae MGH-2, read-out: Minimal Inhibitory Concentration MIC.
[12] abbreviates: M1771, Proteus rettgeri M 1771, read-out: Minimal Inhibitory Concentration MIC.
Where [13] appears, read: UI18, Pseudomonas aeruginosa UI-18, read-out: Minimal Inhibitory Concentration MIC.
Where [14] appears, read: H228, Staphylococcus aureus H 228, read-out: Minimal Inhibitory Concentration MIC.
[15] abbreviates: UC76, Staphylococcus aureus UC-76, read-out: Minimal Inhibitory Concentration MIC.
Setting [16] is: MGH2, Streptococcus faecalis MGH-2, read-out: Minimal Inhibitory Concentration MIC.
Setting [17] is: SV1, Streptococcus pneumonia SV-1, read-out: Minimal Inhibitory Concentration MIC.
The mark [18] stands for this setting: C203, Streptococcus pyogenes C-203, read-out: Minimal Inhibitory Concentration MIC.

Values after ≈ are worked out from the molar mass of the structure shown. Where two headings read alike, the source gives them in different places.

With `CN1CCN(c2c(F)c(N)c3c(=O)c(C(=O)O)cn(C4CC4)c3c2F)CC1` [Ex. 2, 5-Amino-1-cyclopropyl-6,8-difluoro-1,4-dihydro-7-(4-methyl-1-piperazinyl)-4-oxo-3-quinolinecarboxylic acid], the MIC was determined as 0.013 mg/L (≈ 0.0344 µM) in assay [1]; 0.013 mg/L (≈ 0.0344 µM) in assay [2]; 0.013 mg/L (≈ 0.0344 µM) in assay [3] (setting [11]); 0.05 mg/L (≈ 0.132 µM) in [4] (setting [12]); 0.1 mg/L (≈ 0.264 µM) in assay [5] (setting [13]); 0.05 mg/L (≈ 0.132 µM) in [6] (setting [14]). Moreover, the MIC in assay [7] (setting [15]) turned out to be 0.025 mg/L (≈ 0.0661 µM); in assay [8] (setting [16]) it was 0.1 mg/L (≈ 0.264 µM); in [9] (setting [17]) it was 0.2 mg/L (≈ 0.529 µM); in assay [10] (setting [18]) it was 0.4 mg/L (≈ 1.06 µM).
As for `Nc1c(F)c(N2CCNCC2)c(F)c2c1c(=O)c(C(=O)O)cn2C1CC1` [Ex. 1, 5-amino-1-cyclopropyl-6,8-difluoro-1,4-dihydro-4-oxo-7-(1-piperazinyl)-3-quinolinecarboxylic acid], the MIC in assay [1] came to 0.013 mg/L (≈ 0.0357 µM); in assay [2], 0.013 mg/L (≈ 0.0357 µM); in assay [3] (setting [11]), 0.025 mg/L (≈ 0.0686 µM); in assay [4] (setting [12]) it was 0.05 mg/L (≈ 0.137 µM); in assay [5] (setting [13]) it was 0.025 mg/L (≈ 0.0686 µM); in assay [6] (setting [14]), 0.05 mg/L (≈ 0.137 µM). Moreover, the MIC in [7] (setting [15]) stood at 0.013 mg/L (≈ 0.0357 µM); in assay [8] (setting [16]), 0.05 mg/L (≈ 0.137 µM); in [9] (setting [17]), 0.05 mg/L (≈ 0.137 µM); in assay [10] (setting [18]), 0.2 mg/L (≈ 0.549 µM).
Regarding `O=C(O)c1cn(C2CC2)c2cc(N3CCNCC3)c(F)cc2c1=O` [Ciprofloxacin, 1-cyclopropyl-6-fluoro-1,4-dihydro-4-oxo-7-piperazinyl-3-quinoline-carboxylic acid, reference compound], the MIC in assay [2] is 0.05 mg/L (≈ 0.151 µM); in assay [3] (Klebsiella pneumoniae, MGH2, read-out: Minimal Inhibitory Concentration MIC), 0.1 mg/L (≈ 0.302 µM); in assay [4] (M1771, read-out: Minimal Inhibitory Concentration MIC), 0.1 mg/L (≈ 0.302 µM); in [5] (Pseudomonas aeruginosa, UI18, read-out: Minimal Inhibitory Concentration MIC), 0.4 mg/L (≈ 1.21 µM); in assay [6] (Staphylococcus aureus, H228, read-out: Minimal Inhibitory Concentration MIC) it was 3.1 mg/L (≈ 9.36 µM); in [7] (Staphylococcus aureus, UC76, read-out: Minimal Inhibitory Concentration MIC), 0.2 mg/L (≈ 0.604 µM). For the same compound, the MIC was 0.8 mg/L (≈ 2.41 µM) in [8] (MGH2, read-out: Minimal Inhibitory Concentration MIC); 1.6 mg/L (≈ 4.83 µM) in assay [9] (SV1, read-out: Minimal Inhibitory Concentration MIC); 0.8 mg/L (≈ 2.41 µM) in assay [10] (Streptococcus pyogenes, C203, read-out: Minimal Inhibitory Concentration MIC).
